Laboratory results: ChEMBL document CHEMBL1782025, “Archazolid A-15-O-β-D-glucopyranoside and iso-archazolid B: potent V-ATPase inhibitory polyketides from the myxobacteria Cystobacter violaceus and Archangium gephyra” (J Nat Prod, 2011)

Key:
L929 = assay: Antiproliferative activity against mouse L929 cells assessed as growth inhibition after 5 days by MTT assay; assay type: functional; conditions: L929, 120 h
[1] = molecular target: V-type proton ATPase subunit B (Manduca sexta, UniProt P31401); assay: Inhibition of Manduca sexta V-ATPase V1/Vo holoenzyme activity assessed as inorganic phosphate production pretreated for 5 mins
[2] = Antiproliferative activity against human KB-3-1 cells after 5 days by MTT assay; assay type: functional; conditions: KB 3-1, 120 h
U-937 = assay: Antiproliferative activity against human U937 cells after 5 days by MTT assay; assay type: functional; conditions: U-937, 120 h
SK-OV-3 = assay: Antiproliferative activity against human SKOV3 cells after 5 days by MTT assay; assay type: functional; conditions: SK-OV-3, 120 h
A-431 = assay: Antiproliferative activity against human A431 cells after 5 days by MTT assay; assay type: functional; conditions: A-431, 120 h
PC-3 = assay: Antiproliferative activity against human PC3 cells after 5 days by MTT assay; assay type: functional; conditions: PC-3, 120 h
MCF7 = assay: Antiproliferative activity against human MCF7 cells after 5 days by MTT assay; assay type: functional; conditions: MCF7, 120 h

Chain of V-type proton ATPase subunit B (P31401 whole entry): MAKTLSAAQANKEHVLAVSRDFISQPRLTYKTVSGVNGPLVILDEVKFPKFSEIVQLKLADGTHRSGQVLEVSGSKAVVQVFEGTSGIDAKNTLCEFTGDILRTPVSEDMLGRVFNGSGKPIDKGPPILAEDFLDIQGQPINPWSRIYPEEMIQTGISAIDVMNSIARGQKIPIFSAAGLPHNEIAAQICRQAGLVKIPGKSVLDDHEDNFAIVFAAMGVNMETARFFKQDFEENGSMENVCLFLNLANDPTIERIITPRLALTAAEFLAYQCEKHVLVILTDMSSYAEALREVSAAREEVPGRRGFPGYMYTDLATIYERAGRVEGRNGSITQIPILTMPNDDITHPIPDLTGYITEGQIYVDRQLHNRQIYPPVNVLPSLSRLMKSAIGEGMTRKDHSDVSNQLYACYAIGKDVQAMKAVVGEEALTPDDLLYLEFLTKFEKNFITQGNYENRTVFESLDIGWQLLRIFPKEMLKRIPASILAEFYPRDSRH

Structure (SMILES)	GI50 (L929) [nM]	IC50 [1] [nmol/mg]	GI50 [2] [nM]	GI50 (U-937) [nM]	GI50 (SK-OV-3) [nM]	GI50 (A-431) [nM]	GI50 (PC-3) [nM]	GI50 (MCF7) [nM]
CNC(=O)O[C@@H](CC(C)C)c1nc([C@H]2OC(=O)/C(C)=C/C/C(C)=C/[C@@H](O)[C@@H](C)\C=C(C)/C=C(C)\C=C\[C@@H](O[C@@H]3O[C@H](CO)[C@@H](O)[C@H](O)[C@H]3O)[C@H](C)[C@H](OC)/C(C)=C/C=C/[C@@H]2C)cs1 [ARCHAZOLID E]	510	–	–	–	–	–	–	–
CNC(=O)O[C@@H](CC(C)C)c1nc([C@H]2OC(=O)/C(C)=C/C/C(C)=C/[C@@H](O[C@@H]3O[C@H](CO)[C@@H](O)[C@H](O)[C@H]3O)[C@@H](C)\C=C(CO)/C=C(C)\C=C\[C@@H](O)[C@H](C)[C@H](OC)/C(C)=C/C=C/[C@@H]2C)cs1 [ARCHAZOLID D]	330	1200	–	–	–	–	–	–
CNC(=O)O[C@@H](CC(C)C)c1nc([C@H]2OC(=O)/C(C)=C/C/C(C)=C/[C@@H](O[C@@H]3O[C@H](CO)[C@@H](O)[C@H](O)[C@H]3O)[C@@H](C)\C=C(C)/C=C(C)\C=C\[C@@H](O)[C@H](C)[C@H](OC)/C(C)=C/C=C/[C@@H]2C)cs1 [ARCHAZOLID C]	1600	210	–	–	–	–	–	–
CNC(=O)O[C@@H](CC(C)C)c1nc([C@H]2OC(=O)/C=C/C/C(C)=C/[C@@H](O)[C@@H](C)\C=C(C)/C=C(C)\C=C\[C@@H](O)[C@H](C)[C@H](OC)/C(C)=C/C=C/[C@@H]2C)cs1 [ARCHAZOLID B]	1.1	0.6	–	–	–	–	–	–
CNC(=O)O[C@@H](CC(C)C)c1nc([C@H]2OC(=O)C/C=C/C(C)=C/[C@@H](O)[C@@H](C)\C=C(C)/C=C(C)\C=C\[C@@H](O)[C@H](C)[C@H](OC)/C(C)=C/C=C/[C@@H]2C)cs1 [ARCHAZOLID F]	0.11	0.7	0.042	0.038	0.043	0.111	0.053	0.131
CNC(=O)O[C@@H](CC(C)C)c1nc([C@H]2OC(=O)/C(C)=C/C/C(C)=C/[C@@H](O)[C@@H](C)\C=C(C)/C=C(C)\C=C\[C@@H](O)[C@H](C)[C@H](OC)/C(C)=C/C=C/[C@@H]2C)cs1 [ARCHAZOLID A]	0.81	0.6	–	–	–	–	–	–
